This note sets out measurements from patent publication US20250084065A1, “INHIBITING MONOACYLGLYCEROL LIPASE (MAGL)” (Psy Therapeutics, Inc., priority 2021, published 2025).

Like-named read-outs stand apart in the source and are kept apart here.

One data set has as its target T1, MAGL enzyme (Homo sapiens, UniProt Q99685).
T1 sequence (Q99685 1-303): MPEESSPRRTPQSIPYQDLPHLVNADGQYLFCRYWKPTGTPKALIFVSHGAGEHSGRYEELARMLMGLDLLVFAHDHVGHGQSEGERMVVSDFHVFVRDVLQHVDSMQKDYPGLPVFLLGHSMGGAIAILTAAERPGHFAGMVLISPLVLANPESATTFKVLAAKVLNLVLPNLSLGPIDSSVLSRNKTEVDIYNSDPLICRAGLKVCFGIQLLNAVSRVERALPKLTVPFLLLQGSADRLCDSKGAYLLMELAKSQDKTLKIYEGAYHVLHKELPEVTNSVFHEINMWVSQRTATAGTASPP
In words: MAGL reversible inhibition assay (return of activity after washout). Type of data set: biochemical. Conditions: for A: degree to which MAGL enzymatic activity returned following washout: pre-washout compound concentration 1 μM, relative to control without inhibitor. As to the method: Example 24: Measuring Reversible MAUL Inhibition (IC50)
The reversible mechanism of MAGL inhibition of a test compound of Formula (I) can be determined. Flag-tagged MAGL enzyme will be immobilized on anti-Flag beads. […] Colorimetric substrate (4-NPA) will be added and the reaction monitored on a plate reader for 30 minutes to verify complete inhibition. Immobilized enzyme will then be washed thoroughly to remove the inhibitor, and fresh substrate will be added. The reaction will be monitored for an additional 30 minutes; returning enzymatic activity will indicate reversibility of inhibition.
Determining MAGL Reversible Inhibition:
MAGL enzyme was incubated for 30 minutes in the presence of 40× the IC50 concentration of inhibitor. […] Substrate was added and the reaction was monitored for 30 minutes.

The nature of data set [1]: Pharmacokinetic study of compounds in mice (brain exposure). In kind it is in vivo, male C57BL/6 mice. Conditions: male, C57BL/6, mouse, oral, 5 mg/kg, Protocols B-E. On the procedure: Example 25: Pharmacokinetic Study of Compounds in Mice
Healthy male C57BL/6 mice (8-12 weeks old) weighing between 17 to 35 g were procured from Global, India. Temperature and humidity were maintained at 22±3° C. and 30-70%, respectively and illumination was controlled to give a sequence of 12 hr light and 12 hr dark cycle. Temperature and humidity were recorded by auto-controlled data logger system. All the animals were provided laboratory rodent diet. Reverse osmosis water treated with ultraviolet light was provided ad libitum.
Protocol A: Twenty-four male mice were divided into two groups as; Group 1: 30 mg/kg/IP; Plasma and brain; Number of animals=12; Animal #1-12. Group 2: 30 mg/kg/PO; Plasma and brain; Number of animals=12; Animal #13-24. Animals in Group 1 were administered intraperitoneally with solution formulation of PSY-05-00074-001 in 5% NMP, 5% Solutol HS-15 and 90% normal saline at […] dose. Animals in Group 2 were administered orally with solution formulation of PSY-05-00074-001 in 5% NMP, 5% Solutol HS-15 and 90% normal saline at 30 mg/kg dose. Blood samples (approximately 60 μL) were collected under light isoflurane anesthesia from retro orbital plexus at 0.25, 0.5, 1, 2, 4 and 8 hr (IP and PO). Plasma samples were separated by centrifugation of whole blood and stored below −70° C. until bioanalysis. Immediately after collection of blood from intraperitoneal and oral group animals, animals were euthanized with excess CO2 and brain samples were collected from set of two mice at each time point. Brain samples were divided into two parts. Half brain samples were homogenized using ice-cold phosphate buffer saline (pH-7.4) and homogenates were stored below −70±10° C. until analysis. Total homogenate volume was three times the brain weight. Other part of brain was stored below −70±10° C. for further analysis. All samples were processed for analysis by protein precipitation using acetonitrile and analyzed with fit-for-purpose LC/MS/MS method (LLOQ-2.02 ng/mL for plasma and 6.06 ng/g for brain). Pharmacokinetic parameters were calculated using the non-compartmental analysis tool of Phoenix WinNonlin®.
Protocol B: Thirty six mice were included into the study and divided in to three groups as Group 1 (n=12), Group 2 (n=12) and Group 3 (n=12) with n=2 mice per time-point design. Animals in Group 1 were administered intravenously with solution formulation of PSY-05-00414-001 at 5 mg/kg dose. Animals in Group 2 were administered orally with solution formulation of PSY-05-00414-001 at a dose of 5 mg/kg. Animals in Group 3 were administered intraperitoneally with solution formulation of PSY-05-00414-001 at 5 mg/kg dose. The formulation vehicle for all the three groups was 5% NMP, 5% Solutol HS-15 and 90% normal saline. Blood samples (approximately 60 μL) were collected under light isoflurane anesthesia from two mice at 0.25, 0.5, 1, 2, 4 and 8 h. Plasma was harvested by centrifugation of blood and stored at −70±10° C. until analysis. After blood collection, brain was perfused and isolated at 0.25, 0.5, 1, 2, 4 and 8 h. Brain samples were dipped thrice in ice-cold phosphate buffer saline, blotted dry and cut in to two equal portion. Half-brain samples from each time-point were weighed and homogenized using ice-cold phosphate buffer saline with twice volume of brain weight making the total homogenate three volumes and stored below −70±10′° C. until analysis. Remaining half-portions of brain samples was snap freeze and kept in −70±10° C. until further confirmation from client. Plasma and brain samples were quantified by fit-for-purpose LC-MS/MS method (LLOQ: 1.01 ng/mL for plasma and 2.02 ng/mL for brain).
Protocol C: Fifty four male mice were included in study and divided in to three groups as Group 1 (n=18), Group 2 (n=18) and Group 3 (n=18) with 3 mice/time point design. […]

Another data set deals with T2, human MAGL (Homo sapiens, UniProt Q99685).
T2 construct: recombinant MAGL enzyme (aa 2-303 RBC, internal preparation)
T2 sequence (Q99685 2-303): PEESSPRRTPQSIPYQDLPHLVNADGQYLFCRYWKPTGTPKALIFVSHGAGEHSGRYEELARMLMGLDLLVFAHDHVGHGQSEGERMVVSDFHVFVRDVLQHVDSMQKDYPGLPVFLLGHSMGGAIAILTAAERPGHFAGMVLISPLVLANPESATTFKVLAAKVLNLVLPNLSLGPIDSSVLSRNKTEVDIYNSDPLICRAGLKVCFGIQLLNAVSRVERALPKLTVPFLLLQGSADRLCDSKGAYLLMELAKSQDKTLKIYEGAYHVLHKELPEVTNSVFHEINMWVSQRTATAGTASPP
In words: MAGL inhibition potency assay with 4-nitrophenyl acetate (4NPA) substrate, absorbance 405 nm. In kind it is biochemical. Conditions: read-out: MAGL Potency (Detection Method).

The AUC(0-t) is the area under the concentration-time curve up to a stated or last time point. One may read the Cmax as the peak of the concentration-time curve. `O=C(c1cc(O)ccc1F)N1CC2(CC(n3cc(C(F)(F)F)c(-c4ccccc4F)n3)C2)C1` (single isomer, unassigned) [Compound 473, (2-fluoro-5-hydroxyphenyl)(6-(3-(2-fluorophenyl)-4-(trifluoromethyl) 1H-pyrazol-1-yl)-2-azaspiro[3.3]heptan-2-yl)methanone]: the A: degree to which MAGL enzymatic activity returned following washout on MAGL enzyme stood at 41%. Also, in data set [1], the AUC(0-t) came to 464 ng·h/mL and the Cmax was determined as 172 ng/g. For `O=C(c1cc(O)ccc1F)N1CC2(CC(n3cc(C4CC4)c(-c4ccccc4F)n3)C2)C1` (single isomer, unassigned) [Compound 493, (6-(4-Cyclopropyl-3-(2-fluorophenyl)-1H-pyrazol-1-yl)-2-azaspiro [3.3]heptan-2-yl) (2-fluoro-5-hydroxyphenyl) methanone], the A: degree to which MAGL enzymatic activity returned following washout on MAGL enzyme stood at 47%.

Consider `Cc1cnn(C2CC3(C2)CN(C(=O)c2cc(O)ccc2F)C3)c1-c1cc(F)ccc1Cl` (single isomer, unassigned) [Compound 519, (6-(5-(2-chloro-5-fluorophenyl)-4-methyl-1H-pyrazol-1-yl)-2-azaspiro [3.3]heptan-2-yl) (2-fluoro-5-hydroxyphenyl) methanone], for which, on MAGL enzyme, the A: degree to which MAGL enzymatic activity returned following washout was 155%. In the case of `Cc1cc(C2CC3(C2)CN(C(=O)c2ccc(F)cc2OCC(F)(F)F)C3)n(-c2ccccc2C)n1` [Compound 178, [4-fluoro-2-(2,2,2-trifluoroethoxy)phenyl]{6-[3-methyl-1-(o-tolyl)-5-pyrazolyl]-2-aza-2-spiro[3.3]heptyl}methanone], the IC50 at human MAGL (Method 2: Cayman Chemical MAGL enzyme prep, 10 nM enzyme) is less than 50 nM; on human MAGL (Method 3: Reaction Biology MAGL enzyme prep, 10 nM enzyme), less than 50 nM; on human MAGL (Method 5: Cayman Chemical MAGL enzyme prep, 25 nM enzyme) it was less than 50 nM. `Cc1cn(C2CC3(C2)CN(C(=O)c2cc(O)ccc2F)C3)nc1-c1cc(F)ccc1Cl` [Compound 520, (6-(3-(2-chloro-5-fluorophenyl)-4-methyl-1H-pyrazol-1-yl)-2-azaspiro [3.3]heptan-2-yl)(2-fluoro-5-hydroxyphenyl) methanone]: the A: degree to which MAGL enzymatic activity returned following washout at MAGL enzyme was determined as 100%. `O=C(Oc1ccc([N+](=O)[O-])cc1)N1CCC(C(O)(c2ccc3c(c2)OCO3)c2ccc3c(c2)OCO3)CC1` [JZL-184, reference compound]: the “B: % MAGL activity returning after washout” value on MAGL enzyme (immediately following a 30 minute washout, relative to control (no inhibitor before washout), pre-washout 1 μM) was less than 1%. On MAGL enzyme, the “A: degree to which MAGL enzymatic activity returned following washout” value was “complete lack of return of MAGL enzymatic activity”.
